Measurements published in paper PMC10150359 (Journal of Medicinal Chemistry, 2023).

How the values were obtained:
[1] = system: EBOV-GP-Pseudotype Virus (pEBOV)
[2] = in vitro; conditions: human
[3] = system: VSV-G-pseudotype virus (pVSV-G); experiment: microbe, parasite or virus in culture; format: cell-based; conditions: Vesicular stomatitis virus, read-out: %inh@10 µM (pVSV-G)
[4] = system: EBOV-GP-Pseudotype Virus (pEBOV); experiment: microbe, parasite or virus in culture; conditions: Zaire ebolavirus, 48 h; for EC50: HeLa, read-out: EC50 (μM) (pEBOV); for inhibition at 10 µM: M-HeLa, read-out: %inh@10 μM (pEBOV)

Row | SMILES | SI (pEBOV) (CC50/EC50) [1] | CC50 at 24 h [2] [µM] | inhibition at 10 µM [3] [%] | EC50 [4] [µM] | antiviral activity against pEBOV, in words [1] | inhibition at 10 µM [4] [%] | CC50 [2] [µM]
1 | CN1CCN(CCC(=O)Nn2c3ccccc3c3ccccc32)CC1 [Compound 3] | 62.5 | 150 | 10 | 2.4 | – | – | –
2 | CN(C)CC(=O)Nn1c2ccccc2c2ccccc21 [Compound 4] | – | – | – | – | inactive | < 75 | –
3 | CN(C)CCC(=O)Nn1c2ccccc2c2ccccc21 [Compound 5] | – | – | – | – | inactive | < 75 | –
4 | O=C(CCN1CCCC1)Nn1c2ccccc2c2ccccc21 [Compound 6] | 21.7 | 28 | 9 | 1.29 | – | – | –
5 | O=C(CCN1CCCCC1)Nn1c2ccccc2c2ccccc21 [Compound 7] | 1.78 | 5 | 30 | 2.8 | – | – | –
6 | O=C(CCl)Nn1c2ccccc2c2ccccc21 [Compound 8] | – | – | – | – | inactive | < 75 | –
7 | O=C(CCN1CCCCC1)NN(c1ccccc1)c1ccccc1 [Compound 19, N′,N′-Diphenyl-3-(piperidin-1-yl)propanehydrazide] | – | – | – | – | inactive | 60 | > 10
8 | O=C(CNCCC1CCN(Cc2ccccc2)CC1)NN(Cc1ccccc1)c1ccccc1 [Compound 30, N′-Benzyl-2-((2-(1-benzylpiperidin-4-yl)ethyl)amino)-N′-phenylacetohydrazide] | 62 | 106 | -25 | 1.05 | – | – | –
9 | O=C(CCNCCC1CCN(Cc2ccccc2)CC1)NN(Cc1ccccc1)c1ccccc1 [Compound 31, N′-Benzyl-3-((2-(1-benzylpiperidin-4-yl)ethyl)amino)-N′-phenylpropanehydrazide] | – | – | – | – | inactive | < 75 | > 10
10 | O=C(CCNCCN1CCN(Cc2ccccc2)CC1)NN(Cc1ccccc1)c1ccccc1 [Compound 32, N′-Benzyl-3-((2-(4-benzylpiperazin-1-yl)ethyl)amino)-N′-phenylpropanehydrazide] | 19.2 | 70 | -36 | 3.63 | – | – | –
11 | CN1CCN(CCC(=O)NN(Cc2ccccc2)c2ccccc2)CC1 [Compound 34, N′-Benzyl-3-(4-methylpiperazin-1-yl)-N′-phenylpropanehydrazide] | – | – | – | – | inactive | < 75 | > 10
12 | O=C(Cc1ccc(Br)cc1)NN(Cc1ccccc1)c1ccccc1 [Compound 39, N′-Benzyl-2-(4-bromophenyl)-N′-phenylacetohydrazide] | – | – | – | – | – | 32 | > 100
13 | O=C(CNCCC1CCN(Cc2ccccc2)CC1)N(c1ccccc1)c1ccccc1 [Compound 40, 2-((2-(1-Benzylpiperidin-4-yl)ethyl)amino)-N,N-diphenylacetamide] | – | 100 | – | – | – | 8 | –
14 | CCOC(=O)C1CCN(CC(=O)N(c2ccccc2)c2ccccc2)CC1 [Compound 41, Ethyl 1-(2-(Diphenylamino)-2-oxoethyl)piperidine-4-carboxylate] | – | – | – | – | – | 40 | > 100
15 | O=C(CNCCc1ccccc1)N(c1ccccc1)c1ccccc1 [Compound 42, 2-(Phenethylamino)-N,N-diphenylacetamide] | – | – | – | – | – | 38 | > 100
16 | CCOC(=O)CCCCCCNCC(=O)N(c1ccccc1)c1ccccc1 [Compound 43, Ethyl 7-((2-(Diphenylamino)-2-oxoethyl)amino)heptanoate] | – | – | – | – | – | 35 | > 100
17 | CCCCCC(=O)N(c1ccccc1)c1ccccc1 [Compound 44, N,N-Diphenylhexanamide] | – | – | – | – | – | 32 | > 100
18 | O=C(Cc1ccc(Br)cc1)N(c1ccccc1)c1ccccc1 [Compound 45, 2-(4-Bromophenyl)-N,N-diphenylacetamide] | – | – | – | – | – | 36 | > 100
